Reference: the METLIN SMRT retention time set (Domingo-Almenara et al. 2019)

Test: gradient 5% acetonitrile 3 min, to 50% in 2 min, to 85% in 15 min, held 3 min, 100 µL/min
Conditions: column: Zorbax Extend-C18 2.1 x 50 mm; eluents: water / acetonitrile, 0.1% formic acid
Outline: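 Retention time was recorded from adduct peaks, which were picked computationally and each inspected manually. Pure standards ran in mixtures of ~100 molecules on HPLC coupled to a quadrupole time-of-flight mass spectrometer, in positive and negative ionization mode, through a Zorbax Extend-C18 column (2.1 × 50 mm, 1.8 μm) at 100 μL/min. Eluents were water and acetonitrile, each with 0.1% formic acid.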

| RP-LC retention time | Compound |
| --- | --- |
| 675 s | O=C(Nc1ccccn1)C1CCCN(c2ncnc3c2nc2n3CCCCC2)C1 (centres undefined) |
| 592 s | CC(=O)N1c2ccc(S(=O)(=O)N3CCCCC3)cc2CC1C(=O)NCCN1CCCC1 (centres undefined) |
| 1110 s | Cc1ccc(C2(O)C(=O)N(Cc3nc(-c4ccccc4)oc3C)c3ccccc32)cc1 (centres undefined) |
| 951 s | O=C(NCc1ccc(F)cc1)c1ccc2c(cnn2CC(=O)N2CCCCCC2)c1 |
| 630 s | CN(CCNC(=O)c1ccc2c(c1)NC(=O)C1CCCCN21)C1CCCCC1 (centres undefined) |
| 891 s | O=C(NC1CCCCC1)c1cc2n(n1)CCCN(Cc1ccccc1)C2=O |
| 697 s | CCOCCCNC(=O)C1CCCN(c2ccc(=O)n(-c3ccc(F)cc3)n2)C1 (centres undefined) |
| 1060 s | Cc1cccc(-c2noc(Cn3nc(-c4ccc(F)cc4)ccc3=O)n2)c1 |
| 580 s | O=C(NC1CC1)c1ccccc1OCC1CCCN(Cc2ccc3c(c2)CCO3)C1 (centres undefined) |
| 823 s | CC(C)NC(=O)Cn1nc2c3cc(-c4ccc(Cl)cc4)nn3ccn2c1=O |
| 741 s | Cc1ccc(-c2csc(NC(=O)CSc3nc4c(cc3C#N)CN(C(C)C)CC4)n2)cc1 |
| 748 s | COc1ccc(NC(=O)c2cn(-c3cc(N4CCCC4)ncn3)cn2)cc1OC |
| 734 s | O=C1NCCCCCN(C(=O)Nc2ccccc2F)[C@H]2CCC[C@@H]12 |
| 1010 s | COc1ccc(-c2cc(-c3nc4c5sc6nc(C)cc(C)c6c5ncn4n3)[nH]n2)cc1 |
| 675 s | COCC(=O)N1CCCn2cc(-c3cccc(C#N)c3)nc21 |
| 948 s | O=C(NCc1ccc2c(c1)OCO2)c1nnc(-c2ccc(S(=O)(=O)N3CCCCC3)cc2)o1 |
| 803 s | CCn1cnc(S(=O)(=O)N2CCCC(C(=O)Nc3cc(C)cc(C)c3)C2)c1 (centres undefined) |
| 903 s | O=c1n(Cc2cc(F)cc(F)c2)nc2c(S(=O)(=O)N3CCCCC3)cccn12 |
| 637 s | Cc1cc(N2CCN(C(=O)Nc3ccccc3Cl)CC2)nc(N2CCOCC2)n1 |
| 731 s | Cn1ncc2c(Nc3ccc(O)cc3)nc(Cl)nc21 |
| 666 s | CCc1nc(N)n(CC(=O)Nc2ccc(Br)cc2)c(=O)c1C |
| 776 s | COCCCNc1c(-c2cccc(F)c2)nc2sc(C(=O)N(C)C)c(C)n12 |

| RP-LC retention time | Compound |
| --- | --- |
| 789 s | Cc1nc(-c2ccccn2)cc2nn(CC(=O)N3CCCc4ccccc43)c(=O)n12 |
| 754 s | Cc1nc(CC(=O)NCCc2c[nH]c3ccc(Cl)cc23)cs1 |
| 709 s | Cc1nc(OCC(=O)Nc2ccc(F)cc2)c2ccccc2n1 |
| 852 s | COc1ccc(OCC(=O)Nc2ccc3c(c2)CCCN3C(=O)C2CC2)cc1 |
| 749 s | CSc1ccccc1NC(=O)Cn1cnc(-c2cccs2)cc1=O |
| 869 s | CCOc1ccc(CNC(=O)C2CCCN(c3ccc(=O)n(-c4ccc(F)cc4)n3)C2)cc1 (centres undefined) |
| 583 s | Cc1cc2c(cc1S(=O)(=O)N(C)CC(=O)N1CCN(c3ccccn3)CC1)OCC(=O)N2 |
| 628 s | Cc1ccc2nc(C(=O)NCc3ccc4c(c3)OCO4)cn2c1 |
| 670 s | COc1cccc(CNC(=O)C2CCCN(c3cc(=O)n(C)c(=O)n3C)C2)c1 (centres undefined) |
| 676 s | COc1ccc(NC(=O)Cn2nc3nc(N4CCCC4)ccn3c2=O)cc1Cl |
| 791 s | CCCN1CCCCc2cc(C(=O)N(C)CC(=O)NC)sc21 |
| 790 s | CCc1noc(NC(C)=O)c1-c1ccc(OC)c(S(=O)(=O)N(C)c2ccc(C)cc2)c1 |
| 803 s | CCn1cnc(S(=O)(=O)N2CCCC(C(=O)NCc3ccc(C)cc3)C2)c1 (centres undefined) |
| 666 s | Cc1ncsc1C1N(C2CCN(C(=O)c3ccco3)CC2)C(=O)C12CCCC2 (centres undefined) |
| 614 s | O=C(Nc1cc(F)c(F)c(F)c1)N1CCc2nc[nH]c2C1 |
| 804 s | COc1cc(NC(=O)c2c(C)oc3nc(C)nc(N4CCOCC4)c23)cc(OC)c1 |
| 1030 s | COC(=O)c1[nH]c(C)c(C(=O)CN(CC2CCCO2)C(=O)c2ccc(OC)cc2)c1C (centres undefined) |
| 702 s | C=CCc1ccccc1OCCn1c(CN(C)C(=O)c2ccco2)nc2ccccc21 |
| 864 s | COc1ccc2c(c1)CCC1C2CC[C@@]2(C)C1CC[C@@H]2NCCCCCCN1C(=O)CCC1=O (some centres undefined) |
| 639 s | O=C(NCCc1c[nH]c2ccc(Cl)cc12)c1ccncc1 |
| 746 s | CC(C)c1nnc(NC(=O)C2CC(=O)N(CCc3c[nH]c4ccc(F)cc34)C2)s1 (centres undefined) |
| 775 s | O=C(Nc1ccc(Br)cc1)C1CCCN(c2ccnc(-c3ccc(F)cc3)n2)C1 (centres undefined) |

| RP-LC retention time | Compound |
| --- | --- |
| 655 s | COc1cc(N)c(Cl)cc1C(=O)OCCCN1CCCCC1 |
| 800 s | Cc1ccc(CNC(=O)C2(C)Cn3nc(C(=O)NC4CCCCC4)cc3C(=O)N2C)cc1 (centres undefined) |
| 722 s | C=Cc1ccc(CN2CCCN(c3ncccc3-c3nc(CC)no3)CC2)cc1 |
| 906 s | CCn1c(C2CCN(S(=O)(=O)c3ccc(C(C)C)cc3)C2)nc2cccnc21 (centres undefined) |
| 731 s | c1ccc2sc(N3CCN(Cc4ccc5c(c4)OCO5)CC3)nc2c1 |
| 831 s | COc1ccc(NC(=O)c2cc(C(C)C)n(C3CCS(=O)(=O)C3)n2)cc1 (centres undefined) |
| 907 s | Cc1ccccc1C(=O)N1CC(C(=O)NCC(C)C)C(c2cccc(C(F)(F)F)c2)C1 (centres undefined) |
| 724 s | Cc1ccc(CN2C(=O)C3CCCCC3C2=O)cc1S(=O)(=O)N1CCN(c2ccccn2)CC1 (centres undefined) |
| 724 s | O=C(Nc1ccc2c(c1)OCCO2)N1CC[C@@H]2COC(=O)N(Cc3ccccc3)[C@@H]2C1 |
| 804 s | CCOc1ccc(S(=O)(=O)N(C)C2CCc3nn(CC4CC4)c(=O)n3CC2)cc1 (centres undefined) |
| 555 s | CCc1nc(NCc2ccncc2)ncc1C(=O)O |
| 644 s | CCc1ccc(S(=O)(=O)NCC(c2cccs2)N2CCOCC2)s1 (centres undefined) |
| 998 s | CCSc1nc2ccc(NS(=O)(=O)c3cccc(F)c3)cc2s1 |
| 874 s | O=S(=O)(c1ccc2nncn2c1)N(Cc1ccccc1F)c1cc(F)cc(F)c1 |
| 639 s | Cc1ccc(C)c(CNC(=O)C2CCN(CCc3cn(C)c4ncccc34)CC2)c1 |
| 654 s | O=S(=O)(Cc1ccc(Cl)cc1)c1ccc(N2CCN(c3ccccn3)CC2)nn1 |
| 544 s | CC(=O)Nc1ccc(OCC(=O)N(C)Cc2ccccc2)nc1 |
| 742 s | Cc1oc2ccc(NS(=O)(=O)c3ccc(F)cc3)cc2c1C(=O)O |
| 568 s | COc1ccc(C2(C(=O)N3CCn4ccnc4C3C(C)C)CC2)cc1 (centres undefined) |
| 664 s | Cc1cc2[nH]c(C(=O)Nc3cc(F)c(F)cc3F)c(CN(C)C)c2s1 |
| 1140 s | CCC(CC)COC(=O)c1[nH]c2c(c1C)C(=O)CC(c1ccc(OC)c(OC)c1)C2 (centres undefined) |
| 668 s | O=C(Nc1ccc(F)cc1F)N1CCCC(Cn2c(C3CC3)nc3cccnc32)C1 (centres undefined) |

| RP-LC retention time | Compound |
| --- | --- |
| 1180 s | CCCCNC(=O)Cc1c(C)nn(-c2nc(-c3ccc(Cl)cc3)cs2)c1C |
| 650 s | O=C(c1cccnc1)N1CCC(n2nc(-c3ccsc3)ccc2=O)CC1 |
| 1100 s | COc1cccc(-c2nnc(Cc3nc(-c4ccc(Br)cc4)no3)o2)c1 |
| 744 s | COC(=O)c1ccc2c(c1)N(Cc1cccc(F)c1)C(=O)CS2=O (centres undefined) |
| 764 s | Cc1cc(C)n(-c2cc(N3CCCC3)ncn2)n1 |
| 718 s | Cc1cc(=O)c2cc(C(=O)c3ccccc3)ccc2[nH]1 |
| 593 s | CCOC(=O)c1c(C)[nH]c(C(=O)N2CCCC(C(=O)NCCCN3CCOCC3)C2)c1C (centres undefined) |
| 1030 s | Cc1cc2nc(NCCCO)n(CC(=O)c3cc(C(C)(C)C)c(O)c(C(C)(C)C)c3)c2cc1C |
| 1050 s | COc1cccc(Cn2cnc3c(-c4cccc(F)c4)csc3c2=O)c1 |
| 678 s | Cc1ccc(S(=O)(=O)NC2CCS(=O)(=O)C2)cc1[N+](=O)[O-] (centres undefined) |
| 961 s | Cc1ccc(-c2noc(C3CCCN3C(=O)c3cncc(Br)c3)n2)cc1 (centres undefined) |
| 745 s | CN1CCCCCCN(C(=O)Nc2ccc3c(c2)OCCO3)CCC1=O |
| 728 s | Cn1cnc(S(=O)(=O)N2CCC(C(=O)NC3CCCc4ccccc43)CC2)c1 (centres undefined) |
| 842 s | Clc1ccc(Nc2c(-c3ccc(N4CCOCC4)cc3)nc3cnccn23)cc1 |
| 552 s | Cc1c(-c2ccnc(N3CCN(C)CC3)n2)cnc2nc(-c3ccncc3)nn12 |
| 1010 s | CCOC(=O)[C@H](C)C[C@@H](Cc1ccc(-c2ccccc2)cc1)NC(=O)CCC(=O)O |
| 861 s | CSc1ccc(CNC(=O)Cn2c(=O)c3cccn3c3ccc(F)cc32)cc1 |
| 927 s | O=S(=O)(CCc1noc(C2COc3ccccc3O2)n1)c1ccccc1 (centres undefined) |
| 864 s | O=C(C1=NN(Cc2ccccc2)c2cc(Cl)ccc2S1(=O)=O)N1CCOCC1 |
| 929 s | COc1ccc(C(C)NC(=O)c2sc3ncccc3c2-n2cccc2)cc1OC (centres undefined) |
| 582 s | CS(=O)(=O)c1ccc2nc(NC(=O)CN3C(=O)CCC3=O)sc2c1 |
| 689 s | Cc1ccc2nc(C(=O)NCc3cccc(F)c3)cn2c1 |

| Compound | RP-LC retention time |
| --- | --- |
| O=C(c1nc(-c2ccnc(N3CCCC3)c2)no1)N1CCC2(CC1)OCCO2 | 617 s |
